This note sets out measurements from ChEMBL document CHEMBL2073962, “Wild-type breast cancer resistance protein (BCRP/ABCG2) is a methotrexate polyglutamate transporter” (Cancer Res, 2003).

In data set [1] the target is T1, Broad substrate specificity ATP-binding cassette transporter ABCG2 (Homo sapiens, UniProt Q9UNQ0).
T1 sequence (Q9UNQ0 whole entry): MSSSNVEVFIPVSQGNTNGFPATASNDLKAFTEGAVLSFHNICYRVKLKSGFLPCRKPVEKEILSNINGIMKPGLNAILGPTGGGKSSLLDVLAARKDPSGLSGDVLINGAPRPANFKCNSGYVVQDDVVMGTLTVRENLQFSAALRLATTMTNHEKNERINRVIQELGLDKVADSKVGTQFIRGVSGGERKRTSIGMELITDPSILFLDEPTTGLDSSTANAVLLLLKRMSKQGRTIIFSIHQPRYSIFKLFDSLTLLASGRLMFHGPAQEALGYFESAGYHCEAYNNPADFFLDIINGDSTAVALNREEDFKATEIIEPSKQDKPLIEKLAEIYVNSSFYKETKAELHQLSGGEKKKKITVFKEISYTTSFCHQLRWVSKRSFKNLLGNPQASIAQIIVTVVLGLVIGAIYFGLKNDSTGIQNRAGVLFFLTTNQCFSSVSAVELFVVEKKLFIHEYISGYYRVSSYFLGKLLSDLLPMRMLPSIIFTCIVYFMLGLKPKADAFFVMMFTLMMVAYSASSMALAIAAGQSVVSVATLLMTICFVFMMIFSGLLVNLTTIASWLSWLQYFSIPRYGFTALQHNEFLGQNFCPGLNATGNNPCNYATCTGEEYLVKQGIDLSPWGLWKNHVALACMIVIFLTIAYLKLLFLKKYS
As to the kind of experiment: TP_TRANSPORTER: inhibition of MTX update by Mitoxantrone at a concentration of 50uM in membrane vesicles from BCRP-expressing MCF7 cells. The data set is classed as functional, cell membranes, Membrane vesicle. Details: scale not given: the % may be the effect or the level left. The settings on record: mcf7, 50 µM.

For data set [2], the target named is T1, Broad substrate specificity ATP-binding cassette transporter ABCG2. As to the kind of experiment: TP_TRANSPORTER: inhibition of MTX in membrane vesicles from BCRP-expressing MCF7 cells. The data set is classed as functional, cell membranes, Membrane vesicle.
Data set [3] shares this target. As to the kind of experiment: (§1) TP_TRANSPORTER: uptake (vesicle) in membrane vesicles from BCRP-expressing MCF7 cells. In kind it is functional, cell membranes.
Substrate in data set [4]: CN(Cc1cnc2nc(N)nc(N)c2n1)c1ccc(C(=O)N[C@@H](CCC(=O)O)C(=O)O)cc1
Described as §1. The data set is classed as functional, cell membranes.

In data set [1], `O=C1c2c(O)ccc(O)c2C(=O)c2c(NCCNCCO)ccc(NCCNCCO)c21` [MITOXANTRONE] gave an Activity of 50%.

Consider `COc1ccc2c3c([nH]c2c1)[C@H](C=C(C)C)N1C(=O)[C@@H]2CCCN2C(=O)[C@@H]1C3` [FUMITREMORGIN], for which, in data set [2], the Activity entry was “inhibitor []”.

For `CN(Cc1cnc2nc(N)nc(N)c2n1)c1ccc(C(=O)N[C@@H](CCC(=O)N[C@@H](CCC(=O)N[C@@H](CCC(=O)O)C(=O)O)C(=O)O)C(=O)O)cc1`, the Activity entry in data set [3] is “substrate []”.

On to `CN(Cc1cnc2nc(N)nc(N)c2n1)c1ccc(C(=O)N[C@@H](CCC(=O)N[C@@H](CCC(=O)N[C@@H](CCC(=O)N[C@@H](CCC(=O)O)C(=O)O)C(=O)O)C(=O)O)C(=O)O)cc1`, for which the Activity entry in data set [3] was “substrate []”.

B1: Broad substrate specificity ATP-binding cassette transporter ABCG2 (Homo sapiens) (protein)
chain: T1 sequence (Q9UNQ0 whole entry)
One may read the Km as the concentration of substrate that gives half-maximal velocity. For the molecule B1, the Km in data set [4] was determined as 680 µM.
